# Laboratory results published in patent US9682931B2, “Aryloyl(oxy or amino)pentafluorosulfanylbenzene compound, pharmaceutically acceptable salt thereof, and prodrugs thereof” (UBE INDUSTRIES, LTD., priority 2013, dated 2017).
# Read-outs that look alike come from different tables or passages of the source. Marks after values point to notes of the source that are not given here.
# Tests used:
# [1] = test system: Salmonella typhimurium TA98 strain and TA100 strain; assay: Growth inhibitory action and bactericidal action on salmonella (preincubation method, with and without S9 mix); format: cell-based; conditions: for Bactericidal action: lowest concentration at which all bacterial cells were killed
# Description: Growth inhibitory action and bactericidal action on salmonella
# 1) Preparation of Test-Substance Solution
# Test substances (compounds listed in Table 1) each were prepared by dissolving it in DMSO when used. Preparation was made in such a manner that the highest dose became 5000 μg/plate and the dose lower than this was prepared by a dilution method. In the table, reference numerals of individual compounds correspond to the numbers of the individual compounds synthesized in the above Examples (the same applies to the following Tables).
# Salmonella typhimurium TA98 strain and TA100 strain were used.
# These were supplied by Japan Bioassay Research Center, proliferated and examined for genetic properties and other properties in accordance with customary methods, in advance. After these strains were confirmed to have these properties, they are cryopreserved (−80° C.) with a DMSO-added medium; and thawed for use in each test.
# 3) A cryopreserved strain was thawed and inoculated in a 2.5% aqueous nutrient broth (OXOID No. 2) solution and cultured while shaking at 37° C. for 7 hours to obtain a cell suspension, which was subjected to tests.
# A minimum glucose agar plate medium (Vital Media AMT-S, manufactured by Kyokuto Pharmaceutical Industrial Co., Ltd.) was used.
# The top agar was prepared when used by blending an aqueous solution of 0.5 mM L-histidine and 0.5 mM D-(+)-biotin with an aqueous solution prepared by adding Bacto Agar (Difco) (0.6%) and sodium chloride (0.5%).
# S9 was purchased from Kikkoman; whereas a cofactor was previously prepared in accordance with a method known in the art. They were mixed in a customary method to prepare S9 mix.
# Using a test system containing S9 mix and a test system containing no S9 mix, a test was carried out in accordance with a preincubation method. As the dose selection, the highest dose was specified as […], which was then serially diluted in a common ratio of 2 to prepare a total of 15 doses to be used in the test.
# To a sterile test tube, a test solution (0.1 mL) and 0.1 M Na-phosphate buffer or S9 mix (0.5 mL) and a cell suspension (0.1 mL) were sequentially dispensed. Pre-incubation was carried out at 37° C. for 20 minutes while shaking. After completion of the pre-incubation, top agar (2 mL) kept warm at 45° C. was added, mixed and placed on a minimum glucose agar plate medium. After solidification, the plate was turned upside down and cultured at 37° C. for 48 hours.
# After completion of the culture, the state of microbial growth was observed by a stereomicroscope. After a precipitate on the plate was observed, revertant colonies were counted by the naked eye or a colony counter.
# 7) Criteria for Determination
# Growth of both TA98 and TA100 strains was examined in the presence or absence of S9 mix. Among the resultant concentrations at which growth was inhibited, the lowest concentration was specified as the growth inhibitory concentration. Similarly, the bactericidal concentration was specified as the lowest concentration at which all bacterial cells were killed.
# [2] = test system: K562 human leukemia-derived cell lines; assay: K562 human leukemia cell-proliferation inhibition test; format: cell-based; conditions: K562 cells, 72 hours, viable cells counted with trypan blue
# Description: K562 Human Leukemia Cell-Proliferation Inhibition Test
# A cell proliferation inhibition test using K562 cells was performed. The activity in the presence of a test substance was compared to the activity in the presence of green tea polyphenol (GTP). The materials used in the test are as follows.
# Cells: K562 human leukemia-derived cell lines (DS Pharma Biomedical Co., Ltd.)
# Control Substance: Green Tea Polyphenols, abbreviation: GTP (LKT Laboratories, Inc.)
# Culture solution: 10% equine serum-supplemented RPMI1640 medium
# A test substance and a control substance were used by dissolving each of them in DMSO. To a solution (0.99 mL) containing K562 cells in a cell concentration of 20,000 cells/mL, a test substance solution or a control substance solution (0.01 mL) was added and the cells were cultured. Seventy two hours later, a part of the cells was stained with trypan blue and viable cells were counted by a counting chamber.
# In Table 2, “IC50” denotes the sample concentration inhibiting 50% of cell proliferation
# [3] = test system: TNF-α mRNA expression in RBL-2H3 cells; assay: Validation test in RBL-2H3 cell: TNF-α mRNA expression by antigen stimulation (Real-time PCR); format: cell-based, Rat; conditions: 10 μmol/L, untreated control as 100
# Description: 2. Validation Test in RBL-2H3 Cell
# (Effect on Inflammation Mediator mRNA Expression by Antigen Stimulation)
# After a cell model for an allergic reaction, RBL-2H3 cells, were stimulated by an antigen, mRNA expression level of a typical inflammation mediator, TNF-α, in the cell was measured by a Real-time PCR method. In this manner, a confirmation test for anti-inflammatory effect of Compound 3 was performed.
# A test substance (Compound 3) (50 mg) was dissolved by adding 50 vol % ethanol (1 mL) to this to obtain an ethanol solution having a concentration of 50 mg/mL. The resultant solution was diluted with a medium. […] As a control (for comparison), Wortmannin (10 μM) was used. Herein, the concentrations were all indicated as the concentrations in cell supernatants.
# RBL-2H3 cells were sensitized with anti-DNP-IgE antibody for 2 hours. A medium or a test solution was added and heat was applied at 37° C. for 10 minutes and then, a DNP-HSA solution was added. A reaction was carried out at 37° C. for 30 minutes. After completion of the reaction, total RNA was extracted from a cell fraction and cDNA was synthesized by use of Random Primer and Reverse Transcriptase. After a specific primer for a desired gene (ITNF-α,β-actin) was added, a Real-time PCR method was carried out in accordance with SYBR Green method using the resultant cDNA as a template to determine the expression level of mRNA. The expression ratio of the desired gene relative to a housekeeping gene, β-actin, was calculated. In this manner, a change in expression level relative to an untreated control was calculated.
# Main test conditions and outline of the operation will be described below.
# Cell: Rat basophil leukemic cell, RBL-2H3 [Human Sciences Foundation]
# Antigen stimulation: Anti-DNP-IgE antibody, DNP labeled albumin
# [Sigma-Aldrich Corporation]
# Desired genes: IL-4, MCP-1, TNF-α, β-actin (housekeeping gene)
# Measurement apparatus: StepOnePlus Real-Time PCR System [Life
# Technologies Corporation] Measurement conditions: 95° C. (20 sec)→{95° C. (3 sec)→60° C. (30 sec)}×40 cycles
# mRNA expression level (%) was obtained based on the expression level of the untreated control as 100.
# [4] = TA98 and TA100, presence or absence of S9 mix
# [5] = Homo sapiens, K562, 72 h, read-out: IC50
# [6] = lowest concentration at which growth was inhibited, TA98 and TA100, presence or absence of S9 mix
Compound,Growth inhibition ([1]; TYPHIMURIUM),"Bactericidal action [1, 4] [μg/plate]","IC50 [2, 5] [µg/mL]","Growth inhibition [1, 6] [μg/plate]",IC50 [2] [µg/mL],TNF-α mRNA expression level [3] [%]
"CC(=O)Oc1ccc(/C=C/C(=O)Nc2ccc(S(F)(F)(F)(F)F)cc2)cc1OC(C)=O [Compound 4, 4-(3,4-diacetoxycinnamoylamino)pentafluorosulfanylbenzene]",<39.1*^1 μg/plate,156,2.2,–,–,–
"O=C(/C=C/c1ccc(O)c(O)c1)Nc1ccc(S(F)(F)(F)(F)F)cc1 [Compound 5, 4-(3,4-dihydroxycinnamoylamino)pentafluorosulfanylbenzene]",–,78.1,–,19.5,0.36,–
"CC(=O)Oc1cc(C(=O)Nc2ccc(S(F)(F)(F)(F)F)cc2)cc(OC(C)=O)c1OC(C)=O [Compound 9, 4-(3,4,5-triacetoxybenzoylamino)pentafluorosulfanylbenzene]",–,625,1.2,156,–,–
"O=C(Nc1cccc(S(F)(F)(F)(F)F)c1)c1cc(O)c(O)c(O)c1 [Compound 11, 3-(3,4,5-trihydroxybenzoylamino)pentafluorosulfanylbenzene]",–,625,1.5,78.1,–,–
"O=C(Nc1cc(S(F)(F)(F)(F)F)ccc1O)c1cc(O)c(O)c(O)c1 [Compound 12, 3-(3,4,5-trihydroxybenzoylamino)-4-hydroxypentafluorosulfanylbenzene]",–,1250,–,313,–,–
"O=C(Nc1ccc(S(F)(F)(F)(F)F)cc1NC(=O)c1cc(O)c(O)c(O)c1)c1cc(O)c(O)c(O)c1 [Compound 14, 3,4-bis(3,4,5-trihydroxybenzoylamino)pentafluorosulfanylbenzene]",–,1250,–,625,–,–
"COc1cc(/C=C/C(=O)Nc2ccc(S(F)(F)(F)(F)F)cc2)ccc1OC(C)=O [Compound 20, 4-(4-acetoxy-3-methoxycinnamoylamino)pentafluorosulfanylbenzene]",–,–,1.7,156,–,–
"CC(=O)Oc1ccc(/C=C/C(=O)Oc2ccc(S(F)(F)(F)(F)F)cc2)cc1OC(C)=O [Compound 22, 4-(3,4-diacetoxycinnamoyloxy)pentafluorosulfanylbenzene]",–,156,–,156,–,–
"O=C(/C=C/c1ccccc1)Nc1ccc(S(F)(F)(F)(F)F)cc1 [Compound 35, 4-(cinnamoylamino)pentafluorosulfanylbenzene]",–,>2500,0.2,39.1,–,–
"COC[C@H]1OC(=O)c2coc3c2[C@@]1(C)C1=C(C3=O)[C@@H]2CCC(=O)[C@@]2(C)C[C@H]1OC(C)=O [Wortmannin, reference compound]",–,–,–,–,–,45
